A short description of data set [1]: Acute toxicity in Rattus norvegicus (rat) compound administered through inhalation. The conditions noted are these: in vivo, inhaled or intranasal. It is filed as organism-based.
Data set [2] can be described thus: Octanol-water partition co-efficient, log P of the compound at 20 degC. It is filed as physicochemical.
The nature of data set [3]: Solubility of the compound in water. It is filed as physicochemical. The following applies: buffer.
Data set [4] is described as follows: Acute toxicity in Rattus norvegicus (rat) compound administered intradermally. The following applies: in vivo. The data set is classed as organism-based.
A short description of data set [5]: Acute toxicity in po dosed Rattus norvegicus (rat). The data set is classed as organism-based. The conditions noted are these: in vivo.
Data set [6] can be described thus: Toxicity in Cyprinidae (carp fish). The data set is classed as ADME, organism-based. The conditions noted are these: in vivo.

The results in this text go back to ChEMBL document CHEMBL3045907, “Discovery and development of pyridalyl” (J Pestic Sci, 2012).

For `FC(F)(F)c1ccc(OCCCOc2c(Cl)cc(OCC=C(Cl)Cl)cc2Cl)nc1` [PYRIDALYL], the results for the 50% lethal concentration (LC50) in data set [1] and in data set [6] were above 2.01 µg/mL and above 10 µg/mL, respectively. Besides, in data set [2], the log partition coefficient (logP) was determined as 8.1. In data set [3], this compound yielded a solubility of 0.15 ppb. For the same compound, the figures for the LD50 in data set [4] and in data set [5] were above 2000 mg/kg and above 5000 mg/kg, respectively.
